Like-named read-outs stand apart in the source and are kept apart here.

The test system of series [1] is biofilms of F. nucleatum, givalis and T. forsythia. Put plainly: Biofilm morphology, confocal scanning laser microscope technique. The series is classed as cell-based. As to conditions: live/dead staining; FIG. 22. As to the method:
(§1) Particularly, a sterilized cover glass slip (round shape with a radius of 12 mm) was placed on each well of a cell culture plate (24 well plate) by using a pincette. F. nucleatum A1-2 was added to cell culture medium (BHI medium+supplements) at the volume of 10% by the total volume.
(§2) The compounds of examples of the present invention were diluted to make the final concentration of each compound of 2 μM, 0.2 μM and 0.02 μM (BH1 medium: Brain Heart Infusion Medium, supplements: hemin (10 μg/ml) and vitamin K (0.2 μg/ml)).
(§3) The prepared culture solution was added to each well of the plate where the glass slip was placed, and the desired number of bacteria was inoculated into each well (F. nucleatum: 2×10^7 cells/ml, P. gingivalis: 4×10^8 cells/ml, T. forsythia: 2×10^8 cells/ml).
(§4) The prepared well plate was incubated at 37° C. under anaerobic condition (10% H2, 10% CO2 and 80% N2) for 48 hours for the culture of bacteria. The biofilm formed on the glass slip by the bacteria cultured in each group was quantitatively and comparatively analyzed using the following techniques.
The glass slip whereon biofilm had been formed was stained by using a live/dead-BacLight bacterial viability kit (Invitrogen, Grand Island, N.Y., USA), and the morphology of the biofilm was observed under a confocal scanning laser microscope and compared.

The next series deals with P. gingivalis biofilm. Put plainly: Inhibition of biofilm formation, crystal violet staining (OD595). In kind it is cell-based. The settings on record: 2000 nM, 200 nM and 20 nM; FIG. 21. As for the experimental part:
(§5) Particularly, a sterilized cover glass slip (round shape with a radius of 12 mm) was placed on each well of a cell culture plate (24 well plate) by using a pincette. F. nucleatum A1-2 was added to cell culture medium (BHI medium+supplements) at the volume of 10% by the total volume. The compounds of examples of the present invention were diluted to make the final concentration of each compound of 2 μM, 0.2 μM and 0.02 μM (BH1 medium: Brain Heart Infusion Medium, supplements: hemin (10 μg/ml) and vitamin K (0.2 μg/ml)). The prepared culture solution was added to each well of the plate where the glass slip was placed, and the desired number of bacteria was inoculated into each well (F. nucleatum: 2×10^7 cells/ml, P. gingivalis: 4×10^8 cells/ml, T. forsythia: 2×10^8 cells/ml). For the positive control not treated with the compounds of examples of the present invention (F.n AI-2), F. nucleatum AI-2 was added to the cell culture medium (BHI+supplements) and then the same number of cells was inoculated. In the meantime, for the negative control treated neither the compound of the present invention nor F. nucleatum A1-2 (Fn), PBS was added to the cell culture medium (BHI+supplements) instead of F. nucleatum A1-2 at the same volume as the above. The prepared well plate was incubated at 37° C. under anaerobic condition (10% H2, 10% CO2 and 80% N2) for 48 hours for the culture of bacteria. The biofilm formed on the glass slip by the bacteria cultured in each group was quantitatively and comparatively analyzed using the following techniques. […] 200 μl of the decolorizing solution containing crystal violet was added to each well of the microplate, and OD595 was measured using a microplate reader (Microplate reader, Model 550, Bio-Rad, USA). The measured values were compared among the groups (As the biofilm formation increased by the molecules secreted by F. nucleatum was suppressed by the compound of the present invention, the measured value was decreased.).

Series [2] has as its system biofilm formation of bacteria. Briefly: Evaluation of inhibition of biofilm formation (overall statements). The series is classed as cell-based. The settings on record: FIG. 20 to FIG. 21; 2000 nM, 200 nM and 20 nM. As to the method: as §1, §2, §3, §4
The glass slip whereon biofilm had been formed was stained with 1% crystal violet solution for 10 minutes, followed by washing with PBS (phosphate buffered saline) three times, and decolorized with acetone-alcohol.
200 μl of the decolorizing solution containing crystal violet was added to each well of the microplate, and OD595 was measured using a microplate reader (Microplate reader, Model 550, Bio-Rad, USA). The measured values were compared among the groups (As the biofilm formation increased by the molecules secreted by F. nucleatum was suppressed by the compound of the present invention, the measured value was decreased.).

Series [3] relates to IL-6 and IL-8 genes in THP-1 cells. Put plainly: Effect on host cell immunity: IL-6 and IL-8 gene expression by real-time RT-PCR in THP-1 cells. In kind it is cell-based, human. As to the method: (§6) To evaluate the effect of the compounds of the present invention on host cell (normal cell) immunity, the host cells were treated with the compounds of the present invention, followed by investigation of the activity of proinflammatory cytokines in host cells.
(§7) Particularly, in order to investigate whether or not the compounds of the present invention were able to induce inflammatory responses in host cells, the expression levels of proinflammatory cytokines including interleukin (IL)-6 and IL-8 were measured by real-time RT-PCR. THP-1 cells (1×10^6 cells/well) and HGF cells (2×10^5 cells/well) were distributed in a 6 well plate, followed by culture in the presence or absence of the compounds of examples (5, 6 and 13) or lipopolysaccharide (LPS, 1 mg) known as an endotoxin of Gram negative bacteria that causes a strong immune response in host cells at 37° C. for 24 hours. Upon completion of the 24 hour culture, RNA was extracted from the THP-1 and HGF cells by using Easy-Blue total RNA extraction kit (iNtRON Biotechnology, Seongnam, Korea) according to the manufacturer's protocol. A cDNA sample ([…]) synthesized from the extracted RNA ([…]) using MMLV reverse transcription kit (Promega, Madison, Wis.) was added to each primer pair (10 pM) and Power SYBR Green Master Mix (Applied Biosystems, Warrington, UK) at the reaction volume of […]. The mixture was applied to ABI PRISM 7500 Fast Real-Time PCR system (Applied Biosystems, Foster City, Calif., USA) by using thermocycling (thermocycling: denaturation at 95° C. for 15 seconds, annealing and extension at 60° C. for 1 minute). Glyceraldehyde 3-phosphate dehydrogenase (GAPDH) gene was used as a reference gene to normalize the gene expression levels of inflammatory cytokines including interleukin 6 (IL-6) and interleukin 8 (IL-8).
A general note: Quantitative PCR measures a nucleic acid by following its amplification.

Series [4] deals with IL-6 and IL-8 genes in HGF cells. Briefly: Effect on host cell immunity: IL-6 and IL-8 gene expression by real-time RT-PCR in HGF cells. The series is classed as cell-based, human. As for the experimental part:
as §6, §7

For another series, the system named is F. nucleatum biofilm. Put plainly: Inhibition of biofilm formation, crystal violet staining (OD595). The series is classed as cell-based. As to conditions: 20 nM; compared with furanone treated control group; FIG. 20. As for the experimental part: as §5

For `O=C1OC(=C(Br)Br)c2ccccc21` [Example 2, 3-(dibromomethylene)isobenzofuran-1(3H)-one], the “inhibition of biofilm formation seen in confocal photographs” value in series [1] is recorded as “inhibited the biofilm formation of bacteria”.

Consider `O=C1OC(=C(Br)Br)C2=C1CCCC2` [Example 3, 3-(dibromomethylene)-4,5,6,7-tetrahydroisobenzofuran-1(3H)-one], for which, in the series with P. gingivalis biofilm, the “P. gingivalis biofilm inhibitory activity (OD595)” value is listed as “excellent P. gingivalis biofilm inhibitory activity”.

Turning to `Cc1cccc2c1C(=O)OC2=C(Br)Br` [Example 13, 3-(dibromomethylene)-7-methylisobenzofuran-1(3H)-one], the “biofilm inhibitory activity (general statement)” value in series [2] is “particularly excellent in inhibiting biofilm formation”. Further, the “induction of IL-6 and IL-8 gene expression (inflammatory response) in THP-1 cells” value (“induction … in THP-1 cells” for short) in series [3] is recorded as “not to induce inflammatory responses”. Further, the “induction of IL-6 and IL-8 gene expression (inflammatory response) in HGF cells” value (“induction … in HGF cells” for short) in series [4] (human, 24 h) was “did not induce the expressions of IL-6 and IL-8 genes”.

As to “lipopolysaccharide [LPS, reference compound]”, the “induction … in THP-1 cells” value in series [3] (24 hours, normalised to GAPDH, FIG. 26) was “induced the expressions of IL-6 and IL-8 genes”. Further, the “induction … in HGF cells” value in series [4] (24 hours, normalised to GAPDH, FIG. 27) is given as “induced the expressions of both cytokines”.

As to `O=C1OC(=C(Br)Br)C2CCCC12` (stereo not shown) [Example 5, 3-(dibromomethylene)-hexahydrocyclopenta[c]furan-1(3H)-one], the “F. nucleatum biofilm inhibitory activity (OD595)” value with F. nucleatum biofilm is listed as “superior F. nucleatum biofilm inhibitory activity at the concentration of 20 nM to the furanone treated control group”. The “biofilm inhibitory activity (general statement)” value in series [2] is given as “particularly excellent in inhibiting biofilm formation”. In series [3], the “induction … in THP-1 cells” value was “not to induce inflammatory responses”. In addition, the “induction … in HGF cells” value in series [4] (human, 24 h) was “did not induce the expressions of IL-6 and IL-8 genes”.

`O=C1OC(=C(Br)Br)C2=C1CCC2` [Example 4, 3-(dibromomethylene)-5,6-dihydro-3H-cyclopenta[c]furan-1(4H)-one]: the “F. nucleatum biofilm inhibitory activity (OD595)” value in the series with F. nucleatum biofilm was “superior F. nucleatum biofilm inhibitory activity at the concentration of 20 nM to the furanone treated control group”. In addition, the “inhibition of biofilm formation seen in confocal photographs” value in series [1] is “inhibited the biofilm formation of bacteria”.

For the compound `Cc1ccc2c(c1)C(=C(Br)Br)OC2=O` [Example 6, 3-(dibromomethylene)-5-methylisobenzofuran-1(3H)-one], the “biofilm inhibitory activity (general statement)” value in series [2] is “particularly excellent in inhibiting biofilm formation”. The “induction … in THP-1 cells” value in series [3] is recorded as “not to induce inflammatory responses”. Moreover, the “induction … in HGF cells” value in series [4] (human, 24 h) is “did not induce the expressions of IL-6 and IL-8 genes”.

For the origin of these results see US11021455B2, “Brominated furanone derivative, method for preparing same, and pharmaceutical composition containing same as active ingredient” (SEOUL NATIONAL UNIVERSITY R&DB FOUNDATION, priority 2016, dated 2021).
